Test results from US12617818B2, “Compositions and methods for modulating myosin subfragment-2 coiled coil stability and methods for using them” (UNIVERSITY OF NORTH TEXAS, priority 2020, dated 2026).
Values joined by “and” are separate entries in the source; they are usually repeats but may differ in a detail not shown here. Identical values can stand only once.

What was measured:
[1] = biological target: T1, human cardiac myosin S2 peptide (Homo sapiens, UniProt P12883); test: Competitive ELISA (cELISA) against polyclonal anti-S2 antibody; type: binding; settings: curve fit of OD vs peptide concentration; read-out: binding efficiency (Kd) to human cardiac myosin S2 peptide
T1 construct: The 19 residue peptide was chemically synthesized
Method: Phosphate buffer saline (PBS) contained 0.14 M sodium chloride, 2.7 mM potassium chloride, 1.5 mM potassium phosphate monobasic, and 8.1 mM sodium phosphate dibasic with pH 7.4. Detergent buffer was made with 0.05% triton X-100 in PBS, blocking buffer was made with 3% powdered milk in detergent buffer. Assay buffer contained 100 mM potassium phosphate dibasic, 100 mM potassium phosphate monobasic, 1 M potassium chloride and 10 mM magnesium chloride with pH 7.0. Stocks of primary antibody (polyclonal antibody anti-S2), rabbit skeletal myosin, human cardiac myosin S2 peptide, stabilizer and destabilizer peptide. Secondary antibody conjugated with alkaline phosphatase was anti-guinea pig immunoglobulin G (IgG)-alkaline phosphatase (Sigma-Aldrich, catalog number A5062) produced in goat and isolated by affinity chromatography. Substrate was 5-Bromo-4-chloro-3-indolyl phosphate (BCIP) tablets dissolved in 10 ml of distilled water per tablet and 96 well microtiter plate.
Competitive Enzyme Linked Immunosorbent Assay (cELISA) is a classical immunochemical test to validate the binding efficiency and specificity in lower molar concentrations (Yorde et al., 1976; Voller et al., 1978; Walker, J. M. 1996). In this assay the polyclonal antibody anti-S2 raised against single alpha helix of myosin S2 would be used to compete with stabilizer or destabilizer peptide to bind myosin S2 in rabbit skeletal myosin molecule as well as small human cardiac myosin S2 peptide. This cELISA, thus have two molecules polyclonal anti-S2 and stabilizer peptide which have two binding sites one on rabbit skeletal myosin and the other one being on small human cardiac myosin S2. Since both polyclonal anti-S2 and stabilizer peptide were designed against human β-cardiac myosin S2 they both would have a stronger affinity towards the smaller human β-cardiac myosin S2 peptide against the myosin S2 on rabbit skeletal myosin.
To test the binding specificity and efficiency of stabilizer or destabilizer peptide the following setup was used. Start of the setup would be to coat the wells with rabbit skeletal myosin molecule and add appropriate amount human cardiac myosin S2 peptide that would bind the primary polyclonal anti-S2 antibody and when washed there won't be enough primary polyclonal anti-S2 antibody to bind myosin S2 of rabbit skeletal myosin adsorbed on the wells. When alkaline phosphatase conjugated secondary antibody is added on to the wells, it won't have enough or none primary polyclonal anti-S2 antibody to bind. After addition of color developing BCIP substrate to the wells it would lead to low or no color development leading to lower optical density (OD). […]

[2] = biological target: T2, cardiac muscle myosin S2 peptide (MYH7) (Homo sapiens, UniProt P12883); test: Gravitational force spectroscopy (GFS), uncoiling of cardiac myosin S2 peptide dimer; type: biochemical; settings: for Force required to uncoil S2 molecule: length 10 nm, in presence of the anti-S2 peptide, ± SEM
T2 construct: host or cells: chemical synthesis
T2 sequence (P12883 912-947 limits assumed): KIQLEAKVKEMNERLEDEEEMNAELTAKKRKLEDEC
Description: 3-aminopropyltriethoxysilane, acetone, coupling buffer (0.01 M pyridine in water with pH 6.0), 5% glutaraldehyde, quenching solution (1 M glycine in water with pH 7.0), blocking buffer (0.01 M Tris, 0.1% sodium azide, 0.1% bovine serum albumin, 0.15 M sodium chloride, and 0.001 M ethylenediaminetetraacetic acid with pH 7.0), wash buffer (0.01 M Tris, 0.1% sodium azide, 0.15 M sodium chloride, and 0.001 M ethylenediaminetetraacetic acid with pH 7.0) low salt buffer (0.1 M potassium chloride, 0.02 M imidazole, 5 mM magnesium chloride, with pH 7.0), 1-ethyl-3-(3-dimethyaminopropyl) carbodiimide, N-hydroxysuccinamide, iodoacetamide-succinimidyl ester, 8M urea solution (50 mM imidazole and 0.1 mM tris (2-carboxyethyl) phosphine with pH 7.0) monodisperse silica beads, glass slides, glass coverslips, vacuum grease, rabbit skeletal myosin, purified actin (G-actin), 1 μM human β-cardiac myosin S2 peptide, 1 μM human β-cardiac mutants myosin S2 peptide (E930del and E924K), 1 μM human skeletal myosin S2 peptide, 1 μM human smooth myosin S2 peptide, stabilizer peptide, and destabilizer peptide. A light microscope with an objective lens of 10× was mounted on an alt-azimuthal mount. A digital video camera of Sony, XCD-V60 was replaced with the ocular lenses. Extension springs on steel bracket held the alt-azimuthal mount suspended.
Gravitational force spectroscopy (GFS), is a single molecule force spectroscopy that utilizes gravitational force to measure absolute length of a single molecule at the given force calculated by the density of the bead suspending the molecule. This technique was discovered and developed in Root lab, which measures the forces in piconewton and sub-piconewton levels. Other than absolute length of a molecule, GFS measures force range required to uncoil, stretch or extend the molecule yielding a force-distance profile for the suspended molecule. Besides that, based on the force-distance profile, number of amino acids within the molecule can be calculated. […] The GFS allowed to test the flexibility or stability of a single molecule of myosin S2 peptide and also for the S2 peptides treated with anti-S2 peptides. Flexibility of myosin S2 is not dependent on assembly myosin as a thick filament or myosin in its single molecule form. The flexibility of myosin S2 region was reported to be similar in single molecule form or myosin in a thick filament assembly thus it could be conceived that the changes seen on flexibility of myosin S2 in presence of anti-S2 peptides would correlate to changes in myosin S2 flexibility for myosin in a thick filament form (Singh et al., 2018). The schematic diagram of GFS is shown below (schematic diagrams of GFS which has two modes: (FIG. 15) free-fall mode, (FIG. 16) rotational mode.
GFS set up assembly contains a light microscope that is horizontally mounted on an alt-azimuthal which is suspended with help of extension springs on a steel bracket. To capture both images and videos of suspended molecule, a digital video camera has been placed instead of the ocular lenses. The molecule of interest is tethered between an immobile edge of glass coverslip placed on a glass slide and mobile silica or glass bead. Slide with the molecule of interest in inserted into the light microscope component of GFS. The bead with molecule of interest is imaged through the microscope and then oriented to the direction of gravity vector to allow the maximal gravitation force exerted on to the bead. GFS has two modes, one is called rotational mode or an equilibrium mode which measures the absolute length of a single molecule and the second one is called free fall mode which measures the force required to unwind, uncoil, stretch or extend the molecule of interest.
Free fall mode, another measurement variant of GFS which allows the user to get a force distance profile on a single molecule experiencing the gravitational force. […]

Row | Kd [1] | Force required to uncoil S2 molecule [2] [pN] | Force required to uncoil S2 molecule ([2]; listed as stabilizer) | increase of force required to uncoil the coiled coil ([2]; vs absence of anti-S2 peptide) [times] | Force required to uncoil S2 molecule ([2]; listed as destabilizer) | decrease of force required to uncoil the coiled coil ([2]; vs absence of anti-S2 peptide) [times] | SMILES
1 | 1 nM | 1.55E+00 ± 1.46E−01 | 1.55±1.46×10^−1 pN | 1.80 | – | – | C[C@H](NC(=O)[C@H](CCCCN)NC(=O)[C@H](Cc1ccccc1)NC(=O)[C@H](CCCCN)NC(=O)[C@H](CCCCN)NC(=O)[C@H](CCCCN)NC(=O)[C@H](CCCCN)NC(=O)[C@H](CCCCN)NC(=O)[C@H](CCCCN)NC(=O)[C@H](CCCCN)NC(=O)[C@@H](N)CCCCN)C(=O)N[C@@H](CCCCN)C(=O)N[C@@H](CCCCN)C(=O)N[C@@H](CCCCN)C(=O)N[C@@H](CCCCN)C(=O)N[C@@H](CCCCN)C(=O)N[C@@H](CCCCN)C(=O)O [Stabilizer]
2 | 6 nM and 1 nM | 4.36E−01 ± 3.30E−02 | – | – | 4.36×10^−1±3.30×10^−2 pN | 1.98 | CSCC[C@H](NC(=O)[C@H](CCC(=O)O)NC(=O)[C@H](CCCNC(=N)N)NC(=O)[C@H](CCC(=O)O)NC(=O)[C@H](CC(=O)O)NC(=O)[C@H](CCC(=O)O)NC(=O)[C@H](CC(C)C)NC(=O)[C@H](CCCNC(=N)N)NC(=O)[C@H](CCC(=O)O)NC(=O)[C@H](CC(N)=O)NC(=O)[C@H](CCSC)NC(=O)[C@@H](N)CCC(=O)O)C(=O)N[C@@H](CCCCN)C(=O)N[C@@H](C)C(=O)N[C@@H](CCC(=O)O)C(=O)N[C@@H](CC(C)C)C(=O)N[C@H](C(=O)N[C@@H](C)C(=O)N[C@@H](CCCCN)C(=O)O)[C@@H](C)O [Destabilizer]
